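Protocol summary: plate cells (96-well), add compound at 5 concentrations, incubate 48 h, interpolate endpoints linearly. Abbreviation: GI50, concentration required for 50% inhibition of growth. TGI is the concentration that stops growth completely.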
Tests used:
Test in all cases: inhibition of tumour cell growth, NCI panel, 48 h
786-0 renal = test system: 786-0 renal
A498 renal = test system: A498 renal
A549 NSCLC = test system: A549 NSCLC
ACHN renal = test system: ACHN renal
BT-549 breast = test system: BT-549 breast
CAKI-1 renal = test system: CAKI-1 renal
CCRF-CEM leukemia = test system: CCRF-CEM leukemia
COLO 205 colon = test system: COLO 205 colon
DU-145 prostate = test system: DU-145 prostate
EKVX NSCLC = test system: EKVX NSCLC
HCC-2998 colon = test system: HCC-2998 colon
HCT-116 colon = test system: HCT-116 colon
HCT-15 colon = test system: HCT-15 colon
HL-60(TB) leukemia = test system: HL-60(TB) leukemia
HOP-62 NSCLC = test system: HOP-62 NSCLC
HOP-92 NSCLC = test system: HOP-92 NSCLC
HS 578T breast = test system: HS 578T breast
HT29 colon = test system: HT29 colon
IGROV1 ovarian = test system: IGROV1 ovarian
K-562 leukemia = test system: K-562 leukemia
KM12 colon = test system: KM12 colon
LOX IMVI melanoma = test system: LOX IMVI melanoma
M14 melanoma = test system: M14 melanoma
MALME-3M melanoma = test system: MALME-3M melanoma
MCF7 breast = test system: MCF7 breast
MDA-MB-231 breast = test system: MDA-MB-231 breast
MDA-MB-435 = test system: MDA-MB-435
MOLT-4 leukemia = test system: MOLT-4 leukemia
NCI-H226 lung = test system: NCI-H226 lung

CN1CCN(c2nc(-c3cnc4ccccc4n3)cc3ccccc23)CC1
GI50 (786-0 renal): 10.9 µM | TGI (786-0 renal): 24 µM | GI50 (A498 renal): > 68.4 µM | TGI (A498 renal): > 100 µM | GI50 (A549 NSCLC): > 32.1 µM | TGI (A549 NSCLC): > 100 µM | GI50 (ACHN renal): 9.5 µM | TGI (ACHN renal): > 66.3 µM | GI50 (BT-549 breast): 39.6 µM | TGI (BT-549 breast): > 79.3 µM | GI50 (CAKI-1 renal): 9.79 µM | TGI (CAKI-1 renal): > 100 µM | GI50 (CCRF-CEM leukemia): 9.44 µM | TGI (CCRF-CEM leukemia): > 90.3 µM | GI50 (COLO 205 colon): 1.84 µM | TGI (COLO 205 colon): 3.67 µM | GI50 (DU-145 prostate): > 52.1 µM | TGI (DU-145 prostate): > 100 µM | GI50 (EKVX NSCLC): > 56.8 µM | TGI (EKVX NSCLC): > 100 µM | GI50 (HCC-2998 colon): 2.17 µM | TGI (HCC-2998 colon): 5.11 µM | GI50 (HCT-116 colon): 3.51 µM | TGI (HCT-116 colon): 8.19 µM | GI50 (HCT-15 colon): 2.95 µM | TGI (HCT-15 colon): 9.19 µM | GI50 (HL-60(TB) leukemia): 4.21 µM | TGI (HL-60(TB) leukemia): 9.46 µM | GI50 (HOP-62 NSCLC): > 38.2 µM | TGI (HOP-62 NSCLC): > 58.9 µM | GI50 (HOP-92 NSCLC): 2.76 µM | TGI (HOP-92 NSCLC): > 69.7 µM | GI50 (HS 578T breast): 15.1 µM | TGI (HS 578T breast): > 67.6 µM | GI50 (HT29 colon): 3.39 µM | TGI (HT29 colon): 11.7 µM | GI50 (IGROV1 ovarian): 7.96 µM | TGI (IGROV1 ovarian): > 55.2 µM | GI50 (K-562 leukemia): 2.3 µM | TGI (K-562 leukemia): 6.34 µM | GI50 (KM12 colon): > 64.6 µM | TGI (KM12 colon): > 100 µM | GI50 (LOX IMVI melanoma): 2.82 µM | TGI (LOX IMVI melanoma): 7.66 µM | GI50 (M14 melanoma): 1.88 µM | TGI (M14 melanoma): 3.65 µM | GI50 (MALME-3M melanoma): 4.45 µM | TGI (MALME-3M melanoma): 9.15 µM | GI50 (MCF7 breast): 6.61 µM | TGI (MCF7 breast): 20.7 µM | GI50 (MDA-MB-231 breast): 6.47 µM | TGI (MDA-MB-231 breast): > 50.3 µM | GI50 (MDA-MB-435): 3.53 µM | TGI (MDA-MB-435): 12.7 µM | GI50 (MOLT-4 leukemia): 4.7 µM | TGI (MOLT-4 leukemia): > 48.9 µM | GI50 (NCI-H226 lung): 35.8 µM | TGI (NCI-H226 lung): > 100 µM
